Activity calls are given as the source filed them. The rule behind the calls is not given here.
Experiments:
THP-1 [1] = experiment: Cytotoxicity against human THP-1 cells by trypan blue exclusion assay; assay type: toxicity, cell-based
THP-1 [2] = experiment: Antiinflammatory activity against LPS-induced human THP-1 cells assessed as reduction in IL-6 cytokine level preincubated for 1 hr followed by LPS-stimulation and measured after 24 hrs by enzyme immunoassay; assay type: functional, cell-based
THP-1 [3] = experiment: Antiinflammatory activity against LPS-induced human THP-1 cells assessed as reduction in TNFalpha cytokine level preincubated for 1 hr followed by LPS-stimulation and measured after 6 hrs by enzyme immunoassay; assay type: functional, cell-based
[4] = target: Mitogen-activated protein kinase 1 (Homo sapiens) (UniProt P28482); experiment: Inhibition of recombinant human ERK2 at 100 uM
Mitogen-activated protein kinase 1 (Homo sapiens), sequence (P28482 whole entry): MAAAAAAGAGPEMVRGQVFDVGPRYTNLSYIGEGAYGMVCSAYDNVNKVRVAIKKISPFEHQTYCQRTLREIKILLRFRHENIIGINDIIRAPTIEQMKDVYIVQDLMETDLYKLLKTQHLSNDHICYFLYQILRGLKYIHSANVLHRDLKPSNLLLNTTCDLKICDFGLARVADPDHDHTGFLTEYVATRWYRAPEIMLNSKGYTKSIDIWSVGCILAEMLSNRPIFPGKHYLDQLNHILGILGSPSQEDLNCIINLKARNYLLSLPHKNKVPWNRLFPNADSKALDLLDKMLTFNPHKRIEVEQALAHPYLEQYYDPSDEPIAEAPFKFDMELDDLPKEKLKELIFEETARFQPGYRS

[5] = target: Signal transducer and activator of transcription 3 (Homo sapiens) (UniProt P40763); experiment: Inhibition of EGF-stimulated STAT3 phosphorylation in human NCI-H292 cells at 100 uM pre incubated for 60 mins followed by […] stimulation for 5 mins by immunoblot analysis; assay type: cell-based; conditions: time 65.0 min
Signal transducer and activator of transcription 3 (Homo sapiens), sequence (P40763 whole entry): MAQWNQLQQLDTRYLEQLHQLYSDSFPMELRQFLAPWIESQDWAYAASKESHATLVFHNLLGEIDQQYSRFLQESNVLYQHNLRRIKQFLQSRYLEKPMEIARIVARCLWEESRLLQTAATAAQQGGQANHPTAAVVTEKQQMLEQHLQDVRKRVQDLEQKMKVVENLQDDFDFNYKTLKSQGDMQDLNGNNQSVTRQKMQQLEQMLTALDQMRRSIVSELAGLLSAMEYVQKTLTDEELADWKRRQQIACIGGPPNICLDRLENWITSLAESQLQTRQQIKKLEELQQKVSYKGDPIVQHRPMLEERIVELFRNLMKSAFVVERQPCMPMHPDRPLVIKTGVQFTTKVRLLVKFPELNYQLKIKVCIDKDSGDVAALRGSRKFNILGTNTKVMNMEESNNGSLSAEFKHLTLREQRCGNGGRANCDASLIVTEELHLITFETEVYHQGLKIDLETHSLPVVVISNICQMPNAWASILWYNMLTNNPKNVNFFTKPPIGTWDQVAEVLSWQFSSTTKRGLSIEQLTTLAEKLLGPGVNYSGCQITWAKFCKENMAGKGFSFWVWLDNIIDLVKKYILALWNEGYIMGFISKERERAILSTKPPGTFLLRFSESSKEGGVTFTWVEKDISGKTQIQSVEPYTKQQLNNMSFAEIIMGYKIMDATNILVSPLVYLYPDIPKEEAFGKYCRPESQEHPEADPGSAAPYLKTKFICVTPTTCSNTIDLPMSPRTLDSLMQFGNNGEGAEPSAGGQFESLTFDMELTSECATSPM

[6] = target: T1, Protein kinase C zeta type (Homo sapiens) (UniProt Q05513); experiment: Inhibition of recombinant human PKCzeta at 100 uM
T1 sequence (whole entry): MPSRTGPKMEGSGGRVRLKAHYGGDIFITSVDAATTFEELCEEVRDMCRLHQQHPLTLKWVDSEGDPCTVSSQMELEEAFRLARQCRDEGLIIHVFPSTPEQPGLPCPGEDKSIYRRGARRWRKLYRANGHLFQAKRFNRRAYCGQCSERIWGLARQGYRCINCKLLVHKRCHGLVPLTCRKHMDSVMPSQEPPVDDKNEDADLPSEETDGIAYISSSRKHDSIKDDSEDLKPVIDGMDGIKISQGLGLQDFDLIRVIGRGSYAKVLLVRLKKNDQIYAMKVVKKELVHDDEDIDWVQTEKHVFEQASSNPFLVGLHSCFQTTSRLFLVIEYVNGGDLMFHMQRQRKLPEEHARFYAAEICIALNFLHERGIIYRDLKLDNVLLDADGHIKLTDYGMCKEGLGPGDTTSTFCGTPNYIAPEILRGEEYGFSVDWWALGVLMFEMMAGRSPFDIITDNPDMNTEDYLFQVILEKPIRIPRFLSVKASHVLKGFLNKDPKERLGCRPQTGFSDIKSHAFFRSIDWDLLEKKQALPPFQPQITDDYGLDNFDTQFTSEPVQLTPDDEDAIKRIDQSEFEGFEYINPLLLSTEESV

[7] = target: Receptor tyrosine-protein kinase erbB-2 (Homo sapiens) (UniProt P04626); experiment: Inhibition of recombinant human Her2 at 100 uM
[8] = target: MAP kinase-activated protein kinase 2 (Homo sapiens) (UniProt P49137); experiment: Inhibition of recombinant human MAPKAPK2 at 100 uM
MAP kinase-activated protein kinase 2 (Homo sapiens), sequence (P49137 whole entry, looked up): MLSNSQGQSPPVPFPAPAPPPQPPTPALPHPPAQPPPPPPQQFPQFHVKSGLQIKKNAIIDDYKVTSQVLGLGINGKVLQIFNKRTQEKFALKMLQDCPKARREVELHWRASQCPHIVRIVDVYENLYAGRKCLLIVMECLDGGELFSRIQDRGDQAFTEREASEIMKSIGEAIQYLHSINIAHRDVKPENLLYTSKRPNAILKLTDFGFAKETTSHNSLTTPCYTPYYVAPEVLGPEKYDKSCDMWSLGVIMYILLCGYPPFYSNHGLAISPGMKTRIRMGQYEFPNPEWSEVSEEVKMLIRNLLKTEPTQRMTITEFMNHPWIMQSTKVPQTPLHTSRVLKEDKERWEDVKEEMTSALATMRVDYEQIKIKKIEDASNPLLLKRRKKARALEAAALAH

[9] = Half life in BALB/c mouse at 2 mg/kg, iv measured upto 8 hrs by LC-MS-MS analysis; assay type: ADME, organism-based; conditions: in vivo
[10] = target: T2, Tyrosine-protein kinase JAK3 (Homo sapiens) (UniProt P52333); experiment: Inhibition of recombinant human JAK3 at 100 uM
T2 sequence (whole entry): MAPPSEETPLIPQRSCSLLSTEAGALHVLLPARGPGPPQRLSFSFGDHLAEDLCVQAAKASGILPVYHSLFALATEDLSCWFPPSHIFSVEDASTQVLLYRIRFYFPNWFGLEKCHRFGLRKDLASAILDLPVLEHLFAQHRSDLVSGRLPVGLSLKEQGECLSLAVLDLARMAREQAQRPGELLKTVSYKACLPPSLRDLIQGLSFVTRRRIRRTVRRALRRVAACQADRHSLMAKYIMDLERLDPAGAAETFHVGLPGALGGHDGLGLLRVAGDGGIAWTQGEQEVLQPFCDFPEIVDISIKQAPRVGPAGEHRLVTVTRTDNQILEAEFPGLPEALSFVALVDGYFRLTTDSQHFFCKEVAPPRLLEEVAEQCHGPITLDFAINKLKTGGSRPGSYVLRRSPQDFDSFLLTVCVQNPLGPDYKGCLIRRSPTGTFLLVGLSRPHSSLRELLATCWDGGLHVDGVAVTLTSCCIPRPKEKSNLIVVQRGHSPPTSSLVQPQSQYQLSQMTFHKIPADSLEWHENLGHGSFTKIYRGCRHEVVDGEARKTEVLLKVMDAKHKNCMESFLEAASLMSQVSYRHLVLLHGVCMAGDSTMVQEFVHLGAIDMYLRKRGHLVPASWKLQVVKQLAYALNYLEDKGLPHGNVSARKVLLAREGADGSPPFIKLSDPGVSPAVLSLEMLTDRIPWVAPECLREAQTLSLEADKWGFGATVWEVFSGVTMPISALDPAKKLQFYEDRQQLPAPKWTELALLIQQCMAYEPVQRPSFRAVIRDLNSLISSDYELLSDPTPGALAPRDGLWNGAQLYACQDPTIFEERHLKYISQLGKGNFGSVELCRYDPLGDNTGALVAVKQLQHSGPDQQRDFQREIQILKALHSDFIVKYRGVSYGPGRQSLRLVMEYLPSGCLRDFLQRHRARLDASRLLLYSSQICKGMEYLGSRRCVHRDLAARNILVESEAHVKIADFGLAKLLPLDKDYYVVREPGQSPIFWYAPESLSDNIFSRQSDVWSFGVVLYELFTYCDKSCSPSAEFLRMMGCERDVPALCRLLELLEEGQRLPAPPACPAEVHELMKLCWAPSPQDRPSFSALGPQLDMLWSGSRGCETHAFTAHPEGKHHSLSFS

[11] = target: Insulin-like growth factor 1 receptor (Homo sapiens) (UniProt P08069); experiment: Inhibition of recombinant human IGF1R at 100 uM
Insulin-like growth factor 1 receptor (Homo sapiens), sequence (P08069 31-736 limits assumed): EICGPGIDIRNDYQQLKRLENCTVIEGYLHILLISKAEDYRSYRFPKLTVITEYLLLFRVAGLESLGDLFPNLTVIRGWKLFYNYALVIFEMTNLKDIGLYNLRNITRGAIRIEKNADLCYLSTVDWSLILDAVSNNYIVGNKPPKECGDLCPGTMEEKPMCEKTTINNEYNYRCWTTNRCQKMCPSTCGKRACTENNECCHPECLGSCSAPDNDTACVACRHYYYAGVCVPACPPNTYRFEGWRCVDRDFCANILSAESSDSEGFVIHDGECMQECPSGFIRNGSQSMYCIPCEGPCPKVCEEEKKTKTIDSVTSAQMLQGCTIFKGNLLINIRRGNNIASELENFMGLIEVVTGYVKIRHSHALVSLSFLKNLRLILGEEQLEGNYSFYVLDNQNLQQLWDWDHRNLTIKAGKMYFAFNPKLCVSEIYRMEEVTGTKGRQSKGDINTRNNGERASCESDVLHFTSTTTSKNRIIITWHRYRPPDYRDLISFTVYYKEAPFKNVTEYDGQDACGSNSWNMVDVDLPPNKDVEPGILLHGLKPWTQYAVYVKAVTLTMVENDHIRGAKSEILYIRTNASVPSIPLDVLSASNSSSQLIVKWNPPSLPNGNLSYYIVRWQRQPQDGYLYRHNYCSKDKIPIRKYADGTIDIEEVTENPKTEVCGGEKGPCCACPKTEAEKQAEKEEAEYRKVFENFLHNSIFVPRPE
Insulin-like growth factor 1 receptor (Homo sapiens), sequence (P08069 741-1367 limits assumed): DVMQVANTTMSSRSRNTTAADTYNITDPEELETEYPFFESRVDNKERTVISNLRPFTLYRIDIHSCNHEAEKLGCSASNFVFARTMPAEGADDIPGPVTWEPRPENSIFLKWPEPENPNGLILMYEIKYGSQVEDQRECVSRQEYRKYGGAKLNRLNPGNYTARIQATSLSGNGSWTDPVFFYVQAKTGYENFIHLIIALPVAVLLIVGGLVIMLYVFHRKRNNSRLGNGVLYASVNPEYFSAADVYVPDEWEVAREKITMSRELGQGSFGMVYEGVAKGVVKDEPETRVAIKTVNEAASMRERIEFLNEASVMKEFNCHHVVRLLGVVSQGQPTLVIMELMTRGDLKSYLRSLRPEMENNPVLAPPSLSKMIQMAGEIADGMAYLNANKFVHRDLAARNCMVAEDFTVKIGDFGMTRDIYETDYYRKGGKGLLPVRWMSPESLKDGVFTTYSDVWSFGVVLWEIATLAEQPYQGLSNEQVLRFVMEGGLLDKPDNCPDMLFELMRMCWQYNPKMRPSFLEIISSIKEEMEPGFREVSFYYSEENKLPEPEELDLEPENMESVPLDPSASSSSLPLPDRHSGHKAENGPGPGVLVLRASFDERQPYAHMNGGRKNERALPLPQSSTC

THP-1 [12] = experiment: Antiinflammatory activity against LPS-induced human THP-1 cells assessed as reduction in IL-1beta cytokine level preincubated for 1 hr followed by LPS-stimulation and measured after 6 hrs by enzyme immunoassay; assay type: functional, cell-based
[13] = target: Tyrosine-protein kinase Lck (Homo sapiens) (UniProt P06239); experiment: Inhibition of recombinant human LCK at 100 uM
Tyrosine-protein kinase Lck (Homo sapiens), sequence (P06239 2-509 limits assumed): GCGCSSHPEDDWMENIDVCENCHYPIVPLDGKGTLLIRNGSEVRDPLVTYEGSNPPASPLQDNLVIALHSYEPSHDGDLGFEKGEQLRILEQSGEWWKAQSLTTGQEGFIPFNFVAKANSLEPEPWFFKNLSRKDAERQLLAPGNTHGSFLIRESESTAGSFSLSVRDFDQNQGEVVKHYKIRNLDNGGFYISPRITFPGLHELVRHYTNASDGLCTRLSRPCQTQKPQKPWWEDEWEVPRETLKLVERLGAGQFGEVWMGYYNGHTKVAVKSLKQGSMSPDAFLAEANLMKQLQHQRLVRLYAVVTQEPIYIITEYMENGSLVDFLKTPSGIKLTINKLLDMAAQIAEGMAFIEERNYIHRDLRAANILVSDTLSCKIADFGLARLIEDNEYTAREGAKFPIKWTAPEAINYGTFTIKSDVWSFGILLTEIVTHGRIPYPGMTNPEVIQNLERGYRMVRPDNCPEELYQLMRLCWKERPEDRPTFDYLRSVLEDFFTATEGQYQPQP

[14] = target: T3, Tyrosine-protein kinase ITK/TSK (Homo sapiens) (UniProt Q08881); experiment: Inhibition of recombinant human EMT at 100 uM
T3 sequence (whole entry): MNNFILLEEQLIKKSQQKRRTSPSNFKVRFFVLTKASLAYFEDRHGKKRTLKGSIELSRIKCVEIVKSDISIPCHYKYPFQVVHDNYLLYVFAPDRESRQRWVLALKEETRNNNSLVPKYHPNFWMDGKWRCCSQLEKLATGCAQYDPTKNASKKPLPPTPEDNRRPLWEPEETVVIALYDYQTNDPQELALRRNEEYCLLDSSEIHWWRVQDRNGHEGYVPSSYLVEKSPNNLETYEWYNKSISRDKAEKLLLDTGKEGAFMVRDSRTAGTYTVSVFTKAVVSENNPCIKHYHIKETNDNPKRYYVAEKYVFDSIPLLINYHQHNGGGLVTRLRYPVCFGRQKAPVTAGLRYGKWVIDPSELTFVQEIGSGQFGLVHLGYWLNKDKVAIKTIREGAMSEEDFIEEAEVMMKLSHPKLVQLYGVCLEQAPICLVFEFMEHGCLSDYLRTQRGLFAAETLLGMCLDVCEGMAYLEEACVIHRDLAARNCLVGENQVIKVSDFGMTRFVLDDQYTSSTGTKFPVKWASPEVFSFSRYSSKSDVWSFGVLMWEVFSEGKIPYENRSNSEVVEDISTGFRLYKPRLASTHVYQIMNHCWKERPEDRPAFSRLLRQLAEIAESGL

Mus musculus [15] = experiment: Antiinflammatory activity against LPS-induced BALB/c mouse assessed as reduction in TNFalpha cytokine level at 10 mg/kg, po pretreated for 1 hr followed by LPS-stimulation and measured after 90mins by enzyme immunoassay; assay type: functional; design: scale not given: the % may be the effect or the level left; conditions: time 150 min, 2.5 h
[16] = Total clearance in BALB/c mouse at 2 mg/kg, iv measured upto 8 hrs by LC-MS-MS analysis; assay type: ADME, organism-based; conditions: in vivo
[17] = target: Protein kinase C alpha type (Homo sapiens) (UniProt P17252); experiment: Inhibition of recombinant human PKCalpha at 100 uM
[18] = Aqueous solubility of compound; assay type: physicochemical; conditions: buffer
Homo sapiens = organism: Homo sapiens; experiment: Inhibition of recombinant human MAPK at 100 uM
Mus musculus [19] = experiment: Antiinflammatory activity against LPS-induced BALB/c mouse assessed as reduction in TNFalpha cytokine level at 100 mg/kg, po pretreated for 1 hr followed by LPS-stimulation and measured after 90mins by enzyme immunoassay; assay type: functional; design: scale not given: the % may be the effect or the level left; conditions: time 150 min, 2.5 h
Mus musculus [20] = experiment: Antiinflammatory activity against LPS-induced po dosed BALB/c mouse assessed as reduction in TNFalpha cytokine level pretreated for 1 hr followed by LPS-stimulation and measured after 90mins by enzyme immunoassay; assay type: functional, organism-based; conditions: dose 1-100 mg/kg, time 150.0 min
[21] = Volume of distribution at steady state in BALB/c mouse at 2 mg/kg, iv measured upto 8 hrs by LC-MS-MS analysis; assay type: ADME, organism-based; conditions: in vivo, read-out: Vdss
[22] = Cmax in BALB/c mouse at 10 mg/kg, po measured upto 8 hrs by LC-MS-MS analysis; assay type: ADME, organism-based; conditions: in vivo
[23] = target: T4, Inhibitor of nuclear factor kappa-B kinase subunit epsilon (Homo sapiens) (UniProt Q14164); experiment: Inhibition of GST-tagged IKKE (unknown origin) expressed in High five cells using LDDRHDSGLDSMKDEEY as substrate incubated for 5 mins in presence of [gamma33P]ATP by liquid scintillation counter analysis
T4 sequence (whole entry): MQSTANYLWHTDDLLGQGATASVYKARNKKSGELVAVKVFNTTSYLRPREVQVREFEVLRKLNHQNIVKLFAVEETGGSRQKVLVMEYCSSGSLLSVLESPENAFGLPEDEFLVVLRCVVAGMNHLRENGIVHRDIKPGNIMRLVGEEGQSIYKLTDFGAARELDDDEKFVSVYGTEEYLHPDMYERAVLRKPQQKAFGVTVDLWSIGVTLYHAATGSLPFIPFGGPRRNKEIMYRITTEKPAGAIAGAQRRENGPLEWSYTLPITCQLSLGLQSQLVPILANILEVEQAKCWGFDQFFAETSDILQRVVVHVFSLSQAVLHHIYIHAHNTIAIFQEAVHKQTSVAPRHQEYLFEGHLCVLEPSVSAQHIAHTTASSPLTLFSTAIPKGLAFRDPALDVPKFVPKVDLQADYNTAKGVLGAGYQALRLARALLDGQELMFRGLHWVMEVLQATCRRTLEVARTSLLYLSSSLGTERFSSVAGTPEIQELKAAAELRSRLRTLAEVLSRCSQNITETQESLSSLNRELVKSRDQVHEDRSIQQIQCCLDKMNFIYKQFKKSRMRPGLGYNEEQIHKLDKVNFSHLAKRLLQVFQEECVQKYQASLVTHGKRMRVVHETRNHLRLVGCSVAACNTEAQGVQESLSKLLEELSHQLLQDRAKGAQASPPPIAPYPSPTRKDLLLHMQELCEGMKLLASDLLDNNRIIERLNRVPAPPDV

THP-1 [24] = experiment: Antiinflammatory activity against LPS-induced human THP-1 cells assessed as reduction in IL-8 cytokine level preincubated for 1 hr followed by LPS-stimulation and measured after 6 hrs by enzyme immunoassay; assay type: functional, cell-based
[25] = Tmax in BALB/c mouse at 10 mg/kg, po measured upto 8 hrs by LC-MS-MS analysis; assay type: ADME, organism-based; conditions: in vivo
[26] = target: Mitogen-activated protein kinase 14 (Homo sapiens) (UniProt Q16539); experiment: Inhibition of recombinant human P38alpha at 100 uM
Mitogen-activated protein kinase 14 (Homo sapiens), sequence (Q16539 whole entry): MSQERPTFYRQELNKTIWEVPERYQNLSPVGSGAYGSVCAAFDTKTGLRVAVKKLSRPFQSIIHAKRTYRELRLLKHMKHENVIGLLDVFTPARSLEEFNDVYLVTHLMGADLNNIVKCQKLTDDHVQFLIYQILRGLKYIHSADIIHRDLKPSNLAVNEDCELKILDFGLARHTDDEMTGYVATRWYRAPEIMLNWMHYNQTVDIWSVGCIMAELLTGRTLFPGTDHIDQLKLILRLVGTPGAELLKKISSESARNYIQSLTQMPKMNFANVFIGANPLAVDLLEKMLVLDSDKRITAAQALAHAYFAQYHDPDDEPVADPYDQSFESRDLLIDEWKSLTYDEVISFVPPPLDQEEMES

[27] = target: MAP kinase-activated protein kinase 2 (Homo sapiens) (UniProt P49137); experiment: Inhibition of LPS-stimulated MAPKAPK2 activation in human THP-1 cells at 100 uM using [33P]ATP as substrate pre incubated for 60 mins followed by LPS-stimulation for 30 mins; assay type: cell-based; conditions: time 90.0 min
[28] = target: Epidermal growth factor receptor (Homo sapiens) (UniProt P00533); experiment: Inhibition of recombinant human Her1 at 100 uM
Epidermal growth factor receptor (Homo sapiens), sequence (P00533 whole entry): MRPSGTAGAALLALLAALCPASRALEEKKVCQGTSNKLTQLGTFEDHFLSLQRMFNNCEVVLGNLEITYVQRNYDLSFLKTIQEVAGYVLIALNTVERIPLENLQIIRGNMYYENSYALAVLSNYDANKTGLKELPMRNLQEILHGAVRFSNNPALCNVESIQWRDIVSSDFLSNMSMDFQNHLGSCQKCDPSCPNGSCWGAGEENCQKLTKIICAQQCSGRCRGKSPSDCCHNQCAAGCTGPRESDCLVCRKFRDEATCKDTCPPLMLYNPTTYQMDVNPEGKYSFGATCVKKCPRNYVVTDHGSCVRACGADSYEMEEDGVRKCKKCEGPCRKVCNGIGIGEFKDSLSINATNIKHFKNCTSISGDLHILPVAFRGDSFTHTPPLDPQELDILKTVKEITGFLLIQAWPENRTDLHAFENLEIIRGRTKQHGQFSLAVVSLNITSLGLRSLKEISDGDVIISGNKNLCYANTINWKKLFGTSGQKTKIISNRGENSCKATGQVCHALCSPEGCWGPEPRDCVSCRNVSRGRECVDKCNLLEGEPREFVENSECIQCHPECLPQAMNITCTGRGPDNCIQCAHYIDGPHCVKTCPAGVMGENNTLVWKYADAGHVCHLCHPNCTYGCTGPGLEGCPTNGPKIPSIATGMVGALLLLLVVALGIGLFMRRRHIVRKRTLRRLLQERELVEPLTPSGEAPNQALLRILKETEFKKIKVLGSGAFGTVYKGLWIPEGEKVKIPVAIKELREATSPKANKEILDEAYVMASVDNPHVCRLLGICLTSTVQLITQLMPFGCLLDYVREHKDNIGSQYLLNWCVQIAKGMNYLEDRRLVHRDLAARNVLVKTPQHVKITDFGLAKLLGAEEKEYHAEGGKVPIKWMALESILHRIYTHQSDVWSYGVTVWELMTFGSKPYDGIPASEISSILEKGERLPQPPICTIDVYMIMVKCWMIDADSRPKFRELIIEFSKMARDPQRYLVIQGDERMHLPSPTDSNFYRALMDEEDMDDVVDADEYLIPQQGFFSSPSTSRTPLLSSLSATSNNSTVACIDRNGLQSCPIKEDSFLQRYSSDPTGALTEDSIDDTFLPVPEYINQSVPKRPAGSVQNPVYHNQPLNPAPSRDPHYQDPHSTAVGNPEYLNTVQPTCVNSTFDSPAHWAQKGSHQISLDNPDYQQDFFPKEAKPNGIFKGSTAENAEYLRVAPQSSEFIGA

[29] = Oral bioavailability in BALB/c mouse at 10 mg/kg measured upto 8 hrs by LC-MS-MS analysis; assay type: ADME, organism-based; conditions: in vivo

- IC50 (THP-1 [2]): 1000 nM
- IC50 (THP-1 [3]): 1000 nM
- inhibition [4]: inactive
- inhibition [5]: inactive
- inhibition [6]: inactive
- inhibition [7]: inactive
- inhibition [8]: inactive
- half-life [9]: 2.2 h
- inhibition [10]: inactive
- inhibition [11]: inactive
- IC50 (THP-1 [12]): 1000 nM
- inhibition [13]: inactive
- inhibition [14]: inactive
- clearance [16]: 114 mL/min/kg
- inhibition [17]: inactive
- solubility [18]: Soluble
- inhibition (Homo sapiens): inactive
- Activity (Mus musculus [20]): Dose-Dependent Effect
- Vd [21]: 18.5 L/kg
- Cmax [22]: 1600 nM
- inhibition [23]: inactive
- IC50 (THP-1 [24]): 1000 nM
- Tmax [25]: 0.52 h
- inhibition [26]: inactive
- inhibition [27]: inactive
- inhibition [28]: inactive
- bioavailability [29]: ~100%
SMILES: Cc1ccc2nc(NCCN)c3ncc(C)n3c2c1 [BMS-345541]
- Activity (THP-1 [1]): Non-Toxic
- Activity (Mus musculus [15]): 50%
- Activity (Mus musculus [19]): 100%
